Test results taken from patent US20210317140A1, “Heterocyclic Compounds and Methods of Use” (MEDIVATION TECHNOLOGIES, INC, priority 2013, published 2021).

Key:
[1] = biological target: T1, ITK (Homo sapiens, UniProt Q08881); assay: ITK kinase profiling (BTK protocol); format: biochemical; details: for ITK @ 0.3 μM (% Inh): 0.3 μM compound; for IC50: 10 dose IC50
T1 construct: purchased Reaction Biology Corporation
T1 sequence (Q08881 1-620): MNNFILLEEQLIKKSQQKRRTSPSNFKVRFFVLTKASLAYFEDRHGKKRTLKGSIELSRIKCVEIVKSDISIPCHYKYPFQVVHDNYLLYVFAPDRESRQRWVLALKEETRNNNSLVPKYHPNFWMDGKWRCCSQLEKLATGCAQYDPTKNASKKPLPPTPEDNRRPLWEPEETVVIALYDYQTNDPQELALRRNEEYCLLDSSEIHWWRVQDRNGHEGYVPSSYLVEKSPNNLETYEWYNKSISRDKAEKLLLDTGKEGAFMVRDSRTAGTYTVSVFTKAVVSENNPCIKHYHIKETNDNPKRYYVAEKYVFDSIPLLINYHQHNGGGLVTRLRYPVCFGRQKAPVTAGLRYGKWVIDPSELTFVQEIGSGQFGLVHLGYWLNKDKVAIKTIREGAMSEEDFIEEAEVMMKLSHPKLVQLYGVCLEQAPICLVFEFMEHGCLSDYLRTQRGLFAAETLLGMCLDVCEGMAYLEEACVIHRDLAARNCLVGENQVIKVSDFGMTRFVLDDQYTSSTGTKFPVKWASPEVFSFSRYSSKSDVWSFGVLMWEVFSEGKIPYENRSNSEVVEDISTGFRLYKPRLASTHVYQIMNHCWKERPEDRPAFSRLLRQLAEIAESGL
Description: BTK assay: In vitro profiling protein kinases was performed using the “HotSpot” assay platform. Briefly, specific kinase/substrate pairs along with required cofactors were prepared in reaction buffer. Compounds were prepared as 10 mM stock solutions in DMSO. Compounds were delivered into the reaction, followed 15-20 minutes later by addition of a mixture of ATP (Sigma, St. Louis Mo.) and ^33P ATP (Perkin Elmer, Waltham Mass.) to a final concentration of 10 μM. […] IC50 values and curve fits were obtained using Prism (GraphPad Software). Buffer Conditions: 20 mM Hepes (pH 7.5), 10 mM MgCl2, 1 mM EGTA, 0.02% Brij35, 0.02 mg/mL BSA, 0.1 mM Na3VO4, 2 mM DTT, 1% DMSO.

[2] = biological target: T2, PI3Kα (Homo sapiens, UniProt P42336); assay: PI3Kα isoform profiling (PI3Kδ protocol); format: biochemical; details: for IC50: 10 dose IC50; for PI3Kα @ 0.3 μM (% Inh): 0.3 μM compound
T2 construct: purchased Reaction Biology Corporation
Source text: (§1) PI3Kδ assay: The PIP3 product is detected by displacement of biotin-PIP3 from an energy transfer complex consisting of Europium labeled anti-GST monoclonal antibody, a GST-tagged pleckstrin homology (PH) domain, biotinylated PIP3 and Streptavidin-Allophycocyanin (APC). Excitation of Europium in the complex results in an energy transfer to the APC and a fluorescent emission at 665 nm. The PIP3 product formed by PI 3-Kinase(h) activity displaces biotin-PIP3 from the complex resulting in a loss of energy transfer and thus a decrease in signal. This is a 3-step reaction: First, the kinase reaction with PIP2 substrate is carried out in the presence of ATP (10 μM), and the reaction is quenched with stop Solution, and then finally detect by adding Detection Mixture followed by incubation (10 min). Reaction procedure: 1) Prepare substrate in freshly prepared Reaction Buffer. 2) Deliver kinase into the substrate solution and gently mix. 3) Deliver compounds in 100% DMSO (1 μM) into the kinase reaction mixture by Acoustic technology (Echo550; nanoliter range), incubate for 10 min at RT. 4) Deliver ATP into the reaction mixture to initiate the reaction. 5) Incubate for 30 min at 30° C. 6) Quench the reaction with Stop Solution. 7) Add Detection Mixture, and incubate for overnight. 8) Measure HTRF: Ex=320 nm, ratio of Em=615 nm and Em=665 nm. The emission ratio is converted into μM PIP3 production based on PIP3 standard curves. The nonlinear regression to obtain the standard curve and IC50 values are performed using Graphpad Prism software. Assay Buffer: HEPES 50 mM (pH7.0), NaN3 0.02%, BSA 0.01%, Orthovanadate 0.1 mM, 1% DMSO. Detection buffer: HEPES 10 mM (pH7.0), BSA 0.02%, KF 0.16 M, EDTA 4 mM. Substrate: 10 μM PIP2 substrate (PI(4,5)P2).
(§2) Compounds of the invention were profiled in a 10 dose IC50 panel against PI3Kα, PI3Kβ, and PI3Kγ kinases, provided by Reaction Biology Corporation, applied to the PI3Kδ protocol provided in Example B1.

[3] = biological target: T3, PI3Kβ (Homo sapiens, UniProt P42338); assay: PI3Kβ isoform profiling (PI3Kδ protocol); format: biochemical; details: for PI3Kβ @ 0.3 μM (% Inh): 0.3 μM compound; for IC50: 10 dose IC50
T3 construct: purchased Reaction Biology Corporation
Source text: as §1, §2

[4] = system: CD69+B220+ cells; assay: B cell activation assay (IgD-stimulated splenocytes, CD69+B220+ cells by FACS); format: cell-based; details: IgD 3 μg/mL, 4 h; for CD69 @ 100 nM (% Inh): 100 nM compound; for IC50: Splenocyte
Procedure, shortened: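 Read-out is percent CD69+ among live B220+ cells by FACS after 4 h stimulation with 3 μg/mL IgD at 37 °C. Before stimulation, splenocytes from one female mouse (10^6 cells/mL) received 100 nM compound for 30 min.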

T3 sequence (P42338 whole entry, canonical isoform): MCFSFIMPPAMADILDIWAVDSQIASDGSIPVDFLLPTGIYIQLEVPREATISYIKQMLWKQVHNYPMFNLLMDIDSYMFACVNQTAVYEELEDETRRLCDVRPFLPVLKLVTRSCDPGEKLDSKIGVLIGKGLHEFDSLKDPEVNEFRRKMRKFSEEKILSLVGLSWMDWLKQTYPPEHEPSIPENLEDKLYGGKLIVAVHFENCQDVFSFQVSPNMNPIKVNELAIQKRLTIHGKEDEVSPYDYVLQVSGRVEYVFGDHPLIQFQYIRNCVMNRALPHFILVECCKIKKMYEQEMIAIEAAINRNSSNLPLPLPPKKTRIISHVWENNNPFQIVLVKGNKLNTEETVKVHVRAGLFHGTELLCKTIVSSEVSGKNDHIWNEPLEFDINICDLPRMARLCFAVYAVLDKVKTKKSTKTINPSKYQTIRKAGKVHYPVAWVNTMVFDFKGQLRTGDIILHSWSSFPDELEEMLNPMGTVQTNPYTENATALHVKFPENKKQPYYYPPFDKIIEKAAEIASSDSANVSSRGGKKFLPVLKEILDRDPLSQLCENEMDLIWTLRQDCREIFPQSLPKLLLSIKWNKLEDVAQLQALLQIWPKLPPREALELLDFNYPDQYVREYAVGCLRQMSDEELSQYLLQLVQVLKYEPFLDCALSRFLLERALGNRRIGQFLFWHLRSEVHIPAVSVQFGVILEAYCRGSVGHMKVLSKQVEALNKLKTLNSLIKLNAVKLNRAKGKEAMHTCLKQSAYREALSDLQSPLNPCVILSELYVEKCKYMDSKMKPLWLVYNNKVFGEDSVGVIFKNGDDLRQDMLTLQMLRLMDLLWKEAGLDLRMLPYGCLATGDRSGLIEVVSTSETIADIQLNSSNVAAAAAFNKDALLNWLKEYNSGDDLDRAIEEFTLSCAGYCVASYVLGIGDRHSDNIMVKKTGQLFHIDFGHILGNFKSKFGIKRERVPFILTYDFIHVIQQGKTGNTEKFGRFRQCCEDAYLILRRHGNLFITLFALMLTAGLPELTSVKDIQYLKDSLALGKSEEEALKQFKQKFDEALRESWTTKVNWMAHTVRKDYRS
T3 sequence (P27986 whole entry partner, canonical isoform): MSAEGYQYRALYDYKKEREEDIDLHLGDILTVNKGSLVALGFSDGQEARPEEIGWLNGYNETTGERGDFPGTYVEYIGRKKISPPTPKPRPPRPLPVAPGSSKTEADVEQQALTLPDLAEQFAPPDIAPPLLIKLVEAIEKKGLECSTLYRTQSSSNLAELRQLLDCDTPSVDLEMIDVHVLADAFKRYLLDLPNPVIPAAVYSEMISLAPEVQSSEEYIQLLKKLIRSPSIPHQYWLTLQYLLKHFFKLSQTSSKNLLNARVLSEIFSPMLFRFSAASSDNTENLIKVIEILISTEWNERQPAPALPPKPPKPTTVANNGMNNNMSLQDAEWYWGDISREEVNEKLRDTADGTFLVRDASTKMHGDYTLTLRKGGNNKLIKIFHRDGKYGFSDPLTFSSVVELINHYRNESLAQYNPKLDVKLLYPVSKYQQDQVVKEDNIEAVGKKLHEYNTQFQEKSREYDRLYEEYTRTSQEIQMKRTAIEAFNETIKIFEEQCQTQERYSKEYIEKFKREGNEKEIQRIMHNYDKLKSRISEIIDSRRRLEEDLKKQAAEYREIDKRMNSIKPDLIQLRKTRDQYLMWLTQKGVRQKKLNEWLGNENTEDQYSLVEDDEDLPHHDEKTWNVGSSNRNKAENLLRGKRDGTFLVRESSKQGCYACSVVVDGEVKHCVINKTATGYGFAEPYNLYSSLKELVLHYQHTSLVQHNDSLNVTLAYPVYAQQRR
T2 sequence (P42336 whole entry, canonical isoform): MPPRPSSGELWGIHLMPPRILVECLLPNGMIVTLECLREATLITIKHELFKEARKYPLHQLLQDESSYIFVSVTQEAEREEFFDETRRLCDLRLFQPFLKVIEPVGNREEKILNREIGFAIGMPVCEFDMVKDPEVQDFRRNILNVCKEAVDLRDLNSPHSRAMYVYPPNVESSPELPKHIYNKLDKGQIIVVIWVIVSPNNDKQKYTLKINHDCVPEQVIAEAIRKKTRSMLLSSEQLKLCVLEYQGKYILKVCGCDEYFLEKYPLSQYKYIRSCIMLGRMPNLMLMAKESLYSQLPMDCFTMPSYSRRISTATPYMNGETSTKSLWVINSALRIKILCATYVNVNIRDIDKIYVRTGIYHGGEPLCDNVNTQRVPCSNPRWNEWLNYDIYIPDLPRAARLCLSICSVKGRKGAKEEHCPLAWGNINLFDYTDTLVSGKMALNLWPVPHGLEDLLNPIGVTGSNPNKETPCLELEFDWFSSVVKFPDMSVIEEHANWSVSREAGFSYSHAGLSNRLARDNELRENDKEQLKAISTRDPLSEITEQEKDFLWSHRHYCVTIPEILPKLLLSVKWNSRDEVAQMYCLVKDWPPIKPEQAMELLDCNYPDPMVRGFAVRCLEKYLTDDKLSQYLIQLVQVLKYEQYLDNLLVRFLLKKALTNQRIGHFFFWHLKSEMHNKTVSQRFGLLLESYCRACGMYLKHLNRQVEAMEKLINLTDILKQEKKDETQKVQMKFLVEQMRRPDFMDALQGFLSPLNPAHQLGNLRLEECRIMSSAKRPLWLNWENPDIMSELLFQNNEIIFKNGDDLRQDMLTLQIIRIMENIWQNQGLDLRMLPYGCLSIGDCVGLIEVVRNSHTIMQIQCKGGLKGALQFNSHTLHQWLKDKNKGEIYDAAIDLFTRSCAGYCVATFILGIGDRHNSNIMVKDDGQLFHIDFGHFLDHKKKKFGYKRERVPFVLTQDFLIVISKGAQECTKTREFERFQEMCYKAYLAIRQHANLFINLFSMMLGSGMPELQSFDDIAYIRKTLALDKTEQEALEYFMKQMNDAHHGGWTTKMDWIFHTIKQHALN
T2 sequence (P27986 whole entry partner, canonical isoform): as the sequence (P27986 whole entry partner, canonical isoform) above

| SMILES | ITK @ 0.3 μM (% Inh) [1] | IC50 [2] | PI3Kβ @ 0.3 μM (% Inh) [3] | IC50 ([4]; Mus musculus) | IC50 ([4]; mouse splenocytes) | IC50 [1] | IC50 [3] | PI3Kα @ 0.3 μM (% Inh) [2] | CD69 @ 100 nM (% Inh) ([4]; mouse splenocytes) |
| --- | --- | --- | --- | --- | --- | --- | --- | --- | --- |
| Nc1ncnc2c1c(-c1cc(O)c(F)c(F)c1)nn2C1Cc2ccccc2C1 [Compound No. 81, 5-[4-amino-1-(2,3-dihydro-1H-inden-2-yl)-1H-pyrazolo[3,4-d]pyrimidin-3-yl]-2,3-difluorophenol] | 2.1 % Inh | 21.1 nM | 73.05 % Inh | 106 ± 50.8 nM | – | – | – | – | 88.08 ± 32.59 (n = 5) % Inh |
| Nc1ncnc2c1c(-c1cc(O)c(F)c(C(F)(F)F)c1)nn2C1Cc2ccccc2C1 [Compound No. 102, 5-[4-amino-1-(2,3-dihydro-1H-inden-2-yl)-1H-pyrazolo[3,4-d]pyrimidin-3-yl]-2-fluoro-3-(trifluoromethyl)phenol] | −5.59 % Inh | 21.1 nM | 67.67 % Inh | – | 191 ± 120 nM | – | – | – | 81.06 ± 20.76 (n = 7) % Inh |
| C=CC(=O)N1CC(n2nc(-c3cc(O)cc(F)c3)c3c(N)ncnc32)Cc2cc(C)ccc21 (stereo not shown) [compound 31, 1-(3-(4-amino-3-(3-fluoro-5-hydroxyphenyl)-1H-pyrazolo[3,4-d]pyrimidin-1-yl)-6-methyl-3,4-dihydroquinolin-1(2H)-yl)prop-2-en-1-one] | 17.1 % Inh | 539 nM | 52.63 % Inh | – | – | > 100000 nM | 927 nM | 50.6 % Inh | – |
| Nc1ncnc2c1c(-c1cc(O)cc(F)c1)nn2C1CCc2ccccc2C1 (stereo not shown) [compound 6, 3-(4-amino-1-(1,2,3,4-tetrahydronaphthalen-2-yl)-1H-pyrazolo[3,4-d]pyrimidin-3-yl)-5-fluorophenol] | – | 20.1 nM | – | – | – | 16400 nM | 105 nM | – | – |
| Nc1ncnc2c1c(-c1ccc(Br)c(O)c1)nn2C1Cc2ccccc2C1 [compound 2, 5-(4-amino-1-(2,3-dihydro-1H-inden-2-yl)-1H-pyrazolo[3,4-d]pyrimidin-3-yl)-2-bromophenol] | – | 17.3 nM | – | – | – | > 100000 nM | – | – | 22.52 ± 18.41 (n = 5) % Inh |
| N#Cc1cc(-c2cn(C3Cc4ccccc4C3)c3ncnc(N)c23)cc(O)c1F [compound 115, 5-[4-amino-7-(2,3-dihydro-1H-inden-2-yl)-7H-pyrrolo[2,3-d]pyrimidin-5-yl]-2-fluoro-3-hydroxybenzonitrile] | −9.43 % Inh | – | 68.12 % Inh | – | – | – | – | – | 44.51 ± 5.23 (n = 3) % Inh |

Now from value to compound, other results behind:

| ITK @ 0.3 μM (% Inh) [1] | IC50 [2] | PI3Kβ @ 0.3 μM (% Inh) [3] | IC50 ([4]; Mus musculus) | IC50 ([4]; mouse splenocytes) | IC50 [1] | IC50 [3] | PI3Kα @ 0.3 μM (% Inh) [2] | SMILES | CD69 @ 100 nM (% Inh) ([4]; mouse splenocytes) |
| --- | --- | --- | --- | --- | --- | --- | --- | --- | --- |
| 112.3 % Inh | 70.1 nM | 39.8 % Inh | – | – | – | – | – | Nc1ncnc2c1c(-c1ccc(Cl)c(O)c1F)nn2C1Cc2ccccc2C1 [Compound No. 100, 3-[4-amino-1-(2,3-dihydro-1H-inden-2-yl)-1H-pyrazolo[3,4-d]pyrimidin-3-yl]-6-chloro-2-fluorophenol] | 27.39 ± 22.07 (n = 5) % Inh |
| 8.82 % Inh | 186 nM | 27.87 % Inh | – | – | – | – | – | Nc1ncnc2c1c(-c1ccc(Cl)c(O)c1)nn2C1Cc2ccccc2C1 [Compound No. 56, 5-[4-amino-1-(2,3-dihydro-1H-inden-2-yl)-1H-pyrazolo[3,4-d]pyrimidin-3-yl]-2-chlorophenol] | 20.57 ± 19.79 (n = 9) % Inh |
| – | 73.1 nM | – | – | – | > 100000 nM | 418 nM | – | Nc1ncnc2c1c(-c1ccc(F)c(O)c1)nn2C1Cc2ccccc2C1 [Compound No. 29, 5-(4-amino-1-indan-2-yl-pyrazolo[3,4-d]pyrimidin-3-yl)-2-fluoro-phenol] | 17.76 ± 20.69 (n = 9) % Inh |
| 2.15 % Inh | – | 37.87 % Inh | – | – | – | – | 53.79 % Inh | Nc1ncnc2c1c(-c1ccc(F)c(O)c1)nn2C1CCc2ccccc2C1 (racemic) [Compound No. 26, 5-(4-amino-1-(1,2,3,4-tetrahydronaphthalen-2-yl)-1H-pyrazolo[3,4-d]pyrimidin-3-yl)-2-fluorophenol] | – |
